Data: patent US20260317324A1, “BIFUNCTIONAL COMPOUNDS FOR DEGRADING BRAF VIA UBIQUITIN PROTEOSOME PATHWAY” (Nurix Therapeutics, Inc., priority 2023, published 2026)

Key:
Format in all cases: cell-based
BRAF V600E = biological target: T1, BRAF V600E (Homo sapiens, UniProt P15056, V600E); assay: BRAF HiBiT degradation assay, C-terminal HiBiT-tagged BRAF V600E A375 cells (clone 1F10), Nano-Glo HiBiT Lytic assay; conditions: for Dmax: A-375
T1 construct: endogenous C-terminal HiBiT fusion tag on BRAF V600E allele; endogenous in cells; host or cells: A375 clone 1F10 (CRISPR-Cas9 knock-in of the HiBiT tag; parental A375 from ATCC)
T1 sequence (P15056 whole entry V600E, the tested form may be a part): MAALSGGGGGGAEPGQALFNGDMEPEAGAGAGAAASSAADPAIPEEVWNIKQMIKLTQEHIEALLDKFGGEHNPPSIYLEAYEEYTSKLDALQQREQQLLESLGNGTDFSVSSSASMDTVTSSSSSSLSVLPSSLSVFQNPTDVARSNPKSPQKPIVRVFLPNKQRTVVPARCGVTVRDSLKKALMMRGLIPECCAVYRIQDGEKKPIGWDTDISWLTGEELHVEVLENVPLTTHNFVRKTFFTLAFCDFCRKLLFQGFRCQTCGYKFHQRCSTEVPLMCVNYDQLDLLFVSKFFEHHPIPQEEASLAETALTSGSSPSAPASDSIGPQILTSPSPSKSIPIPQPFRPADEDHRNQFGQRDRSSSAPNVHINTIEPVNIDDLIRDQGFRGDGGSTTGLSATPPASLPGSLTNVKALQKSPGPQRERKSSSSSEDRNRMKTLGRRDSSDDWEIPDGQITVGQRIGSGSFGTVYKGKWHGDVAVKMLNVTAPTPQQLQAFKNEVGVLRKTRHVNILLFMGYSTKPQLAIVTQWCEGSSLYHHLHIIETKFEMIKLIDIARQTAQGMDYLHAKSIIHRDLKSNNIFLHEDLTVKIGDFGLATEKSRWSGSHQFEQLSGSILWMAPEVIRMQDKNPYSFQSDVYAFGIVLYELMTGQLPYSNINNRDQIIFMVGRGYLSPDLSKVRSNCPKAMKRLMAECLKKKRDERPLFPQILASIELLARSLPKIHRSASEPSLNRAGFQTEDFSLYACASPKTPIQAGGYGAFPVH
Outline: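 A375 cells (clone 1F10, endogenous C-terminal HiBiT on BRAF V600E) were seeded at 10,000 cells/well, grown 24 h, then dosed in duplicate with an 11-point series from 1 μM to 0.01 nM (0.2% DMSO). Nano-Glo HiBiT lytic luminescence was normalised to DMSO and wildtype-A375 background; DC50 was read at 50% protein remaining, alongside observed Dmax.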

BRAF G466V = biological target: T2, BRAF G466V (Homo sapiens, UniProt P15056, G466V); assay: BRAF HiBiT degradation assay, C-terminal HiBiT-tagged BRAF G466V overexpressed in HCT-116 BRAF−/− cells (clone 8), Nano-Glo HiBiT Lytic assay
T2 construct: Horizon Discovery (HCT-116 BRAF−/− cells); host or cells: HCT-116 BRAF−/− cells, clone 8, lentiviral transduction
T2 sequence (P15056 whole entry G466V): as the sequence (P15056 whole entry V600E, the tested form may be a part) above, with G466V, E600V counted along it
Outline: (§1)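 HCT-116 BRAF−/− clones stably overexpressing C-terminal HiBiT-tagged mutant BRAF were seeded 24 h before treatment with an 11-point half-log series from 1 μM to 0.01 nM (0.2% DMSO final). Remaining protein was read by HiBiT lytic luminescence, with DMSO and wildtype-cell controls. DC50 was taken as the fitted concentration at 50% remaining protein; observed Dmax is reported relative to DMSO.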

BRAF G469A = biological target: T3, BRAF G469A (Homo sapiens, UniProt P15056, G469A); assay: BRAF HiBiT degradation assay, C-terminal HiBiT-tagged BRAF G469A overexpressed in HCT-116 BRAF−/− cells (clone 34), Nano-Glo HiBiT Lytic assay
T3 construct: Horizon Discovery (HCT-116 BRAF−/− cells); host or cells: HCT-116 BRAF−/− cells, clone 34, lentiviral transduction
T3 sequence (P15056 whole entry G469A): as the sequence (P15056 whole entry V600E, the tested form may be a part) above, with G469A, E600V counted along it
Outline: as §1

BRAF D594G = biological target: T4, BRAF D594G (Homo sapiens, UniProt P15056, D594G); assay: BRAF HiBiT degradation assay, C-terminal HiBiT-tagged BRAF D594G overexpressed in HCT-116 BRAF−/− cells (clone 63), Nano-Glo HiBiT Lytic assay
T4 construct: Horizon Discovery (HCT-116 BRAF−/− cells); host or cells: HCT-116 BRAF−/− cells, clone 63, lentiviral transduction
T4 sequence (P15056 whole entry D594G): as the sequence (P15056 whole entry V600E, the tested form may be a part) above, with D594G, E600V counted along it
Outline: as §1

[1] = A375 (BRAF V600E), DC50 at 50%: fitted conc. at Y=50
[2] = A375 (BRAF V600E), percentage protein degraded at maximal compound effect relative to DMSO
[3] = BRAF G466V, DC50 at 50%: fitted conc. at Y=50
[4] = HCT-116, BRAF G466V, percentage protein degraded at maximal compound effect relative to DMSO
[5] = Class 2, BRAF G469A, DC50 at 50%: fitted conc. at Y=50
[6] = HCT-116, Class 2, BRAF G469A, percentage protein degraded at maximal compound effect relative to DMSO
[7] = BRAF D594G, DC50 at 50%: fitted conc. at Y=50
[8] = HCT-116, BRAF D594G, percentage protein degraded at maximal compound effect relative to DMSO
[9] = A375 (BRAF V600E, Class 1), DC50 at 50% degradation
[10] = A375 (BRAF V600E, Class 1), observed Dmax, % protein degraded relative to DMSO control
[11] = BRAF G466V (Class 3), HCT-116 BRAF−/− cells, DC50 at 50% degradation
[12] = BRAF G466V (Class 3), HCT-116 BRAF−/− cells, observed Dmax relative to DMSO control
[13] = BRAF G469A (Class 2), HCT-116 BRAF−/− cells, DC50 at 50% degradation
[14] = BRAF G469A (Class 2), HCT-116 BRAF−/− cells, observed Dmax relative to DMSO control
[15] = BRAF D594G (Class 3), HCT-116 BRAF−/− cells, DC50 at 50% degradation
[16] = BRAF D594G (Class 3), HCT-116 BRAF−/− cells, observed Dmax relative to DMSO control

| SMILES | DC50 (BRAF V600E; [1]) [nM] | Dmax (BRAF V600E; [2]) [%] | DC50 (BRAF G466V; [3]) [nM] | Dmax (BRAF G466V; [4]) [%] | DC50 (BRAF G469A; [5]) [nM] | Dmax (BRAF G469A; [6]) [%] | DC50 (BRAF D594G; [7]) [nM] | Dmax (BRAF D594G; [8]) [%] | DC50 (BRAF V600E; [9]) [nM] | Dmax (BRAF V600E; [10]) [%] | DC50 (BRAF G466V; [11]) [nM] | Dmax (BRAF G466V; [12]) [%] | DC50 (BRAF G469A; [13]) [nM] | Dmax (BRAF G469A; [14]) [%] | DC50 (BRAF D594G; [15]) [nM] | Dmax (BRAF D594G; [16]) [%] |
| --- | --- | --- | --- | --- | --- | --- | --- | --- | --- | --- | --- | --- | --- | --- | --- | --- |
| CCCS(=O)(=O)Nc1cccc(-c2nc(C(C)(C)C)sc2-c2ccnc(Nc3ccc(N4CCN(C(=O)CN5CCc6cc(C7CCC(=O)NC7=O)ccc6C5)CC4)c(F)c3)n2)c1F (racemic) [Compound 51, Rac-N-(3-{2-tert-butyl-5-[2-({4-[4-(2-{6-[(3R)-2,6-dioxopiperidin-3-yl]-1,2,3,4-tetrahydroisoquinolin-2-yl}acetyl)piperazin-1-yl]-3-fluorophenyl}amino)pyrimidin-4-yl]-1,3-thiazol-4-yl}-2-fluorophenyl)propane-1-sulfonamide] | < 10 | > 70 | 50 to 500 | 30 to 70 | > 500 | 30 to 70 | 50 to 500 | 30 to 70 | – | – | – | – | – | – | – | – |
| CCCS(=O)(=O)Nc1cccc(-c2nc(-c3ccc(N4CCN(CC5CCN(c6ccc([C@H]7CCC(=O)NC7=O)cc6)CC5)CC4)cc3)sc2-c2ccnc(N)n2)c1F [Compound 191, N-{3-[5-(2-aminopyrimidin-4-yl)-2-(4-{4-[(1-{4-[(3R)-2,6-dioxopiperidin-3-yl]phenyl}piperidin-4-yl)methyl]piperazin-1-yl}phenyl)-1,3-thiazol-4-yl]-2-fluorophenyl}propane-1-sulfonamide] | < 10 | > 70 | 10 to 50 | 30 to 70 | > 500 | 30 to 70 | > 500 | 30 to 70 | – | – | – | – | – | – | – | – |
| CCN(C)S(=O)(=O)Nc1cccc(-c2nc(C)sc2-c2ccnc(Nc3ccc(N4CCN(CC5CCN(c6ccc([C@H]7CCC(=O)NC7=O)cc6)CC5)CC4)cn3)n2)c1F [Compound 41, (3R)-3-{4-[4-({4-[6-({4-[4-(3-{[ethyl(methyl)sulfamoyl]amino}-2-fluorophenyl)-2-methyl-1,3-thiazol-5-yl]pyrimidin-2-yl}amino)pyridin-3-yl]piperazin-1-yl}methyl)piperidin-1-yl]phenyl}piperidine-2,6-dione] | < 10 | > 70 | 50 to 500 | 30 to 70 | 10 to 50 | 30 to 70 | 10 to 50 | 30 to 70 | – | – | – | – | – | – | – | – |
| CCN(C)S(=O)(=O)Nc1cc(Cl)cc(-c2cn(-c3ccc(N4CCN(CC5CCN(c6ccc([C@H]7CCC(=O)NC7=O)cc6)CC5)CC4)cn3)nc2-c2ccncc2)c1F [Compound 310, (3R)-3-(4-{4-[(4-{6-[4-(5-chloro-3-{[ethyl(methyl)sulfamoyl]amino}-2-fluorophenyl)-3-(pyridin-4-yl)-1H-pyrazol-1-yl]pyridin-3-yl}piperazin-1-yl)methyl]piperidin-1-yl}phenyl)piperidine-2,6-dione] | – | – | – | – | – | – | – | – | < 10 | > 70 | 10 to 50 | > 70 | 10 to 50 | 30 to 70 | < 10 | > 70 |
| C[C@@H]1CN(c2ccc(-n3cc(-c4cc(Cl)cc(NS(=O)(=O)N5CCCC5)c4F)c(-c4ccncc4)n3)nc2)CCN1CC1CCN(c2ccc(C3CCC(=O)NC3=O)cn2)CC1 (mixture of isomers) [Compound 323, N-[5-chloro-3-(1-{5-[(3R)-4-[(1-{5-[(3RS)-2,6-dioxopiperidin-3-yl]pyridin-2-yl}piperidin-4-yl)methyl]-3-methylpiperazin-1-yl]pyridin-2-yl}-3-(pyridin-4-yl)-1H-pyrazol-4-yl)-2-fluorophenyl]pyrrolidine-1-sulfonamide] | – | – | – | – | – | – | – | – | < 10 | > 70 | < 10 | > 70 | < 10 | > 70 | < 10 | > 70 |
| O=C1CCC(c2ccc(N3CCC(CN4CCN(c5ccc(-n6cc(-c7cc(Cl)cc(NS(=O)(=O)N8CCCC8)c7F)c(-c7ccncc7)n6)nc5)CC4)CC3)nc2)C(=O)N1 (racemic) [Compound 288, Rac-N-{5-chloro-3-[1-(5-{4-[(1-{5-[(3R)-2,6-dioxopiperidin-3-yl]pyridin-2-yl}piperidin-4-yl)methyl]piperazin-1-yl}pyridin-2-yl)-3-(pyridin-4-yl)-1H-pyrazol-4-yl]-2-fluorophenyl}pyrrolidine-1-sulfonamide] | – | – | – | – | – | – | – | – | < 10 | > 70 | < 10 | > 70 | < 10 | > 70 | < 10 | > 70 |
| C[C@@H]1CN(c2ccc(-n3cc(-c4cc(Cl)cc(NS(=O)(=O)N5CCCC5)c4F)c(-c4ccncc4)n3)cc2)CCN1CC1CCN(c2ccc(N3CCC(=O)NC3=O)cc2)CC1 [Compound 319, N-[5-chloro-3-(1-{4-[(3R)-4-({1-[4-(2,4-dioxo-1,3-diazinan-1-yl)phenyl]piperidin-4-yl}methyl)-3-methylpiperazin-1-yl]phenyl}-3-(pyridin-4-yl)-1H-pyrazol-4-yl)-2-fluorophenyl]pyrrolidine-1-sulfonamide] | – | – | – | – | – | – | – | – | < 10 | > 70 | < 10 | > 70 | 50 to 500 | 30 to 70 | < 10 | 30 to 70 |

The remaining lines, values ahead:

| DC50 (BRAF V600E; [1]) [nM] | Dmax (BRAF V600E; [2]) [%] | DC50 (BRAF G466V; [3]) [nM] | Dmax (BRAF G466V; [4]) [%] | DC50 (BRAF G469A; [5]) [nM] | Dmax (BRAF G469A; [6]) [%] | DC50 (BRAF D594G; [7]) [nM] | Dmax (BRAF D594G; [8]) [%] | DC50 (BRAF V600E; [9]) [nM] | Dmax (BRAF V600E; [10]) [%] | DC50 (BRAF G466V; [11]) [nM] | Dmax (BRAF G466V; [12]) [%] | DC50 (BRAF G469A; [13]) [nM] | Dmax (BRAF G469A; [14]) [%] | DC50 (BRAF D594G; [15]) [nM] | Dmax (BRAF D594G; [16]) [%] | SMILES |
| --- | --- | --- | --- | --- | --- | --- | --- | --- | --- | --- | --- | --- | --- | --- | --- | --- |
| 10 to 50 | > 70 | > 500 | < 30 | > 500 | < 30 | > 500 | 30 to 70 | – | – | – | – | – | – | – | – | CCCS(=O)(=O)Nc1cccc(-c2nc(C(C)(C)C)sc2-c2ccnc(Nc3cnn(CC4CCN(C(=O)[C@@H]5CCN(c6ccc(C7CCC(=O)NC7=O)cn6)C5)CC4)c3)n2)c1F (mixture of isomers) [Compound 114, N-{3-[2-tert-butyl-5-(2-{[1-({1-[(3R)-1-{5-[(3RS)-2,6-dioxopiperidin-3-yl]pyridin-2-yl}pyrrolidine-3-carbonyl]piperidin-4-yl}methyl)-1H-pyrazol-4-yl]amino}pyrimidin-4-yl)-1,3-thiazol-4-yl]-2-fluorophenyl}propane-1-sulfonamide] |
| 10 to 50 | > 70 | 10 to 50 | 30 to 70 | > 500 | 30 to 70 | > 500 | 30 to 70 | – | – | – | – | – | – | – | – | CCCS(=O)(=O)Nc1cccc(-c2nc(C(C)(C)C)sc2-c2ccnc(Nc3ccc(N4CCN(CC5CCN(c6ccc([C@H]7CCC(=O)NC7=O)cc6)CC5)CC4)c(F)c3)n2)c1F [Compound 87, N-[3-(2-tert-butyl-5-{2-[(4-{4-[(1-{4-[(3R)-2,6-dioxopiperidin-3-yl]phenyl}piperidin-4-yl)methyl]piperazin-1-yl}-3-fluorophenyl)amino]pyrimidin-4-yl}-1,3-thiazol-4-yl)-2-fluorophenyl]propane-1-sulfonamide] |
| < 10 | > 70 | > 500 | 30 to 70 | > 500 | 30 to 70 | < 10 | 30 to 70 | – | – | – | – | – | – | – | – | CCCS(=O)(=O)Nc1cccc(-c2nc(C3CCN(C(=O)C4CCN(C(=O)C5CCN(c6ccc(C7CCC(=O)NC7=O)cn6)CC5)CC4)CC3)sc2-c2ccnc(NC3CC3)n2)c1F (racemic) [Compound 198, Rac-N-(3-{5-[2-(cyclopropylamino)pyrimidin-4-yl]-2-{1-[1-(1-{5-[(3R)-2,6-dioxopiperidin-3-yl]pyridin-2-yl}piperidine-4-carbonyl)piperidine-4-carbonyl]piperidin-4-yl}-1,3-thiazol-4-yl}-2-fluorophenyl)propane-1-sulfonamide] |
